Measured values published in ChEMBL document CHEMBL1240386, “Pharmacokinetics of antituberculosis drugs in pulmonary tuberculosis patients with type 2 diabetes” (Antimicrob Agents Chemother, 2010).

Key:
Format in all cases: ADME, organism-based
[1] = AUC (0 to 24 hrs) in tuberculosis patient at 10 mg/kg, po by HPLC analysis; parameters: time < 24 hr, dose 10 mg/kg, route oral; conditions: human, plasma
[2] = Tmax in tuberculosis patient at 10 mg/kg, po by HPLC analysis; parameters: dose 10 mg/kg, route oral; conditions: human, in vivo
[3] = Bioavailability in diabetic tuberculosis patient at 10 mg/kg, po and 10 mg/kg, iv by HPLC analysis; conditions: human, in vivo
[4] = Oral bioavailability in tuberculosis patient at 10 mg/kg by HPLC analysis; conditions: human, in vivo
[5] = AUC (0 to 24 hrs) in diabetic tuberculosis patient at 10 mg/kg, po and 10 mg/kg, iv by HPLC analysis; conditions: human, plasma
[6] = Apparent oral clearance in tuberculosis patient at 10 mg/kg, po by HPLC analysis; parameters: dose 10 mg/kg, route oral; conditions: human, in vivo
[7] = Apparent volume of distribution in tuberculosis patient at 10 mg/kg, po by HPLC analysis; parameters: dose 10 mg/kg, route oral; conditions: human, in vivo, read-out: Vc/F
[8] = Apparent volume of distribution in diabetic tuberculosis patient at 10 mg/kg, po and 10 mg/kg, iv by HPLC analysis; conditions: human, in vivo, read-out: Vc/F
[9] = Cmax in tuberculosis patient at 10 mg/kg, po by HPLC analysis; parameters: dose 10 mg/kg, route oral; conditions: human, in vivo
[10] = Tmax in diabetic tuberculosis patient at 10 mg/kg, po and 10 mg/kg, iv by HPLC analysis; conditions: human, in vivo
[11] = Cmax in diabetic tuberculosis patient at 10 mg/kg, po and 10 mg/kg, iv by HPLC analysis; conditions: human, in vivo
[12] = Half life in tuberculosis patient at 10 mg/kg, po by HPLC analysis; parameters: dose 10 mg/kg, route oral; conditions: human, in vivo
[13] = Half life in diabetic tuberculosis patient at 10 mg/kg, po and 10 mg/kg, iv by HPLC analysis; conditions: human, in vivo
[14] = species: Homo sapiens; assay: Ratio of half life in diabetic tuberculosis patient to half life in tuberculosis patient; conditions: in vivo
[15] = species: Homo sapiens; assay: Ratio of AUC (0 to 24 hrs) for diabetic tuberculosis patient to AUC (0 to 24 hrs) for tuberculosis patient; conditions: in vivo
[16] = species: Homo sapiens; assay: Ratio of Cmax in diabetic tuberculosis patient to Cmax in tuberculosis patient; conditions: in vivo
[17] = Cmax in diabetic tuberculosis patient at 30 mg/kg, po by HPLC analysis; parameters: dose 30 mg/kg, route oral; conditions: human, in vivo
[18] = Cmax in tuberculosis patient at 30 mg/kg, po by HPLC analysis; parameters: dose 30 mg/kg, route oral; conditions: human, in vivo
[19] = tested on: Homo sapiens; assay: Ratio of Cmax in diabetic tuberculosis patient to Cmax in tuberculosis patient at 30 mg/kg, po; parameters: dose 30 mg/kg, route oral; conditions: in vivo
[20] = Tmax in tuberculosis patient at 30 mg/kg, po by HPLC analysis; parameters: dose 30 mg/kg, route oral; conditions: human, in vivo
[21] = tested on: Homo sapiens; assay: Ratio of AUC (0 to 24 hrs) for diabetic tuberculosis patient to AUC (0 to 24 hrs) for tuberculosis patient at 30 mg/kg, po; parameters: dose 30 mg/kg, route oral; conditions: in vivo
[22] = AUC (0 to 24 hrs) in tuberculosis patient at 30 mg/kg, po by HPLC analysis; parameters: time < 24 hr, dose 30 mg/kg, route oral; conditions: human, plasma
[23] = Tmax in diabetic tuberculosis patient at 30 mg/kg, po by HPLC analysis; parameters: dose 30 mg/kg, route oral; conditions: human, in vivo
[24] = AUC (0 to 24 hrs) in diabetic tuberculosis patient at 30 mg/kg, po by HPLC analysis; parameters: time < 24 hr, dose 30 mg/kg, route oral; conditions: human, plasma
[25] = AUC (0 to 24 hrs) in tuberculosis patient at 15 mg/kg, po by HPLC analysis; parameters: time < 24 hr, dose 15 mg/kg, route oral; conditions: human, plasma
[26] = Tmax in tuberculosis patient at 15 mg/kg, po by HPLC analysis; parameters: dose 15 mg/kg, route oral; conditions: human, in vivo
[27] = Cmax in diabetic tuberculosis patient at 15 mg/kg, po by HPLC analysis; parameters: dose 15 mg/kg, route oral; conditions: human, in vivo
[28] = Cmax in tuberculosis patient at 15 mg/kg, po by HPLC analysis; parameters: dose 15 mg/kg, route oral; conditions: human, in vivo
[29] = tested on: Homo sapiens; assay: Ratio of Cmax in diabetic tuberculosis patient to Cmax in tuberculosis patient at 15 mg/kg, po; parameters: dose 15 mg/kg, route oral; conditions: in vivo
[30] = tested on: Homo sapiens; assay: Ratio of sAUC (0 to 24 hrs) for diabetic tuberculosis patient to sAUC (0 to 24 hrs) for tuberculosis patient at 15 mg/kg, po; parameters: dose 15 mg/kg, route oral; conditions: in vivo
[31] = AUC (0 to 24 hrs) in diabetic tuberculosis patient at 15 mg/kg, po by HPLC analysis; parameters: time < 24 hr, dose 15 mg/kg, route oral; conditions: human, plasma
[32] = Tmax in diabetic tuberculosis patient at 15 mg/kg, po by HPLC analysis; parameters: dose 15 mg/kg, route oral; conditions: human, in vivo

CO[C@H]1/C=C/O[C@@]2(C)Oc3c(C)c(O)c4c(O)c(c(/C=N/N5CCN(C)CC5)c(O)c4c3C2=O)NC(=O)/C(C)=C\C=C\[C@H](C)[C@H](O)[C@@H](C)[C@@H](O)[C@@H](C)[C@H](OC(C)=O)[C@@H]1C [RIFAMPIN]
AUC(0-t) at 24 h [1]: 50600 ng·h/mL | Tmax [2]: 2.5 h | bioavailability [3]: 69% | bioavailability [4]: 74% | AUC(0-t) [5]: 49000 ng·h/mL | CL/F [6]: 148 mL/min | Vd/F [7]: 27.6 L | Vd/F [8]: 27.4 L | Cmax [9]: 9600 ng/mL | Tmax [10]: 2 h

CO[C@H]1/C=C/O[C@@]2(C)Oc3c(C)c(O)c4c(O)c(c(/C=N/N5CCN(C)CC5)c(O)c4c3C2=O)NC(=O)/C(C)=C\C=C\[C@H](C)[C@H](O)[C@@H](C)[C@@H](O)[C@@H](C)[C@H](O)[C@@H]1C
AUC(0-t) at 24 h [1]: 8300 ng·h/mL | Tmax [2]: 4 h | Cmax [11]: 1100 ng/mL | half-life [12]: 2.4 h | half-life [13]: 2.3 h | AUC(0-t) [5]: 5700 ng·h/mL | Ratio [14]: 0.94 | Ratio [15]: 0.69 | Ratio [16]: 0.78 | Cmax [9]: 1400 ng/mL | Tmax [10]: 3 h

NC(=O)c1cnccn1 [PYRAZINAMIDE]
Cmax [17]: 45500 ng/mL | Cmax [18]: 47000 ng/mL | Ratio [19]: 0.96 | Tmax [20]: 1.5 h | Ratio [21]: 0.88 | AUC(0-t) at 24 h [22]: 468000 ng·h/mL | Tmax [23]: 1 h | AUC(0-t) at 24 h [24]: 409000 ng·h/mL

CC[C@@H](CO)NCCN[C@@H](CC)CO [ETHAMBUTOL]
AUC(0-t) at 24 h [25]: 13500 ng·h/mL | Tmax [26]: 3 h | Cmax [27]: 2200 ng/mL | Cmax [28]: 1950 ng/mL | Ratio [29]: 1.12 | Ratio [30]: 1.02 | AUC(0-t) at 24 h [31]: 13800 ng·h/mL | Tmax [32]: 3 h
